These results are taken from publication PMC9782245, “Synthesis and Structural Optimization of 2,7,9-Trisubstituted purin-8-ones as FLT3-ITD Inhibitors” (International Journal of Molecular Sciences, 2022).

The structures appear in SMILES notation. “And” between values parts separate entries of the source, which are not always exact repeats. Equal values may be shown once. Read-outs that look alike come from different tables or passages of the source. A value given as a limit tells only on which side of the number the result lay.

The target in one assay is T1, CDK4 (Homo sapiens, UniProt P11802).
T1 construct: purchased Eurofins Discovery (France)
Nature of the assay: Kinase selectivity panel at 1 µM (Eurofins), CDK4. In kind it is biochemical. Here is the method:
(§1) Three representative compounds (14d, 14e, and 15a) were profiled in a 1 µM concentration against 30 kinases that were selected as known off-targets of approved CDK4/6 inhibitors. […] Additional sensitive kinases include STK16, EphA1, MEKK2, SRC, and MER (≤10% of residual enzyme activities), which are not targets of the structurally similar CDK4/6 inhibitor, trilaciclib. We also screened compound 15a, an analogue of 14d, bearing isopropyl at position 7 of the purine instead of the methyl group. This change rapidly diminished the potency against CDK4 (dropped to 90% of residual enzyme activity), but the preference for FLT3 remained (1st rank) (Figure 2).
(§2) CDK/cyclin complexes and FLT3 kinases were assayed as previously described. Protein kinase selectivity was evaluated at a single concentration (1 µM) by screening against 30 enzymes at Eurofins Discovery (France).

A further assay has as its target T2, FLT3-ITD (Homo sapiens, UniProt P36888, ITD).
T2 sequence (P36888 27-993): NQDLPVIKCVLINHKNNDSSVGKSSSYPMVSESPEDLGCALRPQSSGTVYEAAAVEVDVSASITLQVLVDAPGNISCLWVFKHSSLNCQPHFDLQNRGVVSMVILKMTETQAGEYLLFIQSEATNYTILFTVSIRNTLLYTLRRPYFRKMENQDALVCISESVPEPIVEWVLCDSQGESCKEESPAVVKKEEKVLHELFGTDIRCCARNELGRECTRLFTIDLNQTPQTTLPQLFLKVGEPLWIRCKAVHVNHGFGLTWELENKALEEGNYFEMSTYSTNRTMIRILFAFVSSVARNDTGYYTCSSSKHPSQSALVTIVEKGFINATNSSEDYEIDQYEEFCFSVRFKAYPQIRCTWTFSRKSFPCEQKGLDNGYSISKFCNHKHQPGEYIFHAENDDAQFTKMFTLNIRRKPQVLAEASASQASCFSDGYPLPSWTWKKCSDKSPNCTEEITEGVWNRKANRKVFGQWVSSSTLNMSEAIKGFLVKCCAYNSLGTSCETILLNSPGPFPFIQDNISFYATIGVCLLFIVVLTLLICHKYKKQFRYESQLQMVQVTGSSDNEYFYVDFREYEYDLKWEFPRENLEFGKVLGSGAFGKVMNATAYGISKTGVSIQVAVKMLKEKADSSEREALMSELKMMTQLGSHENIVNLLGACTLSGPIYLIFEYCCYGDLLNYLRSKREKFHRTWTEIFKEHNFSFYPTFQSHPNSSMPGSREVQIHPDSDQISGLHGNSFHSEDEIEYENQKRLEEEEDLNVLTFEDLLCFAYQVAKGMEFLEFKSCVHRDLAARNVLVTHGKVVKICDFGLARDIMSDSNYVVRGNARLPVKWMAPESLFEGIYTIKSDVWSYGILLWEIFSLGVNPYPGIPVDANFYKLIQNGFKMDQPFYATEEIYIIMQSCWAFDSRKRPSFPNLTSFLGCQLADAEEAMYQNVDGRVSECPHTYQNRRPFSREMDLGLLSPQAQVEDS
The assay can be described thus: Kinase inhibition assay FLT3-ITD. It counts as biochemical. The procedure:
(§3) Newly prepared compounds 12–15 were assayed for inhibition of FLT3-ITD kinase as well as CDK4 and CDK2, known off-targets of structurally related compounds. We observed that CDK4 was sensitive to nearly all compounds with IC50 values in mid-nanomolar values.
as §2

The target in the next assay is CDK4/D1 (Homo sapiens, UniProt P11802). The assay can be described thus: Kinase inhibition assay CDK4/D1. In kind it is biochemical. The procedure: as §3, §2
In a further assay the target is T3, Src (Homo sapiens, UniProt P12931).
T3 construct: purchased Eurofins Discovery (France)
Nature of the assay: Kinase selectivity panel at 1 µM (Eurofins), Src. It counts as biochemical. The note with it: read-out: residual enzyme activity Src. The procedure: as §1, §2

In another assay the target is CDK2/E (Homo sapiens, UniProt P24941). The assay can be described thus: Kinase inhibition assay CDK2/E. In kind it is biochemical. The procedure: as §3, §2
The next assay addresses T4, FLT3 (Homo sapiens, UniProt P36888).
T4 construct: purchased Eurofins Discovery (France)
T4 sequence (P36888 27-993): T2 sequence (P36888 27-993)
The assay can be described thus: Kinase selectivity panel at 1 µM (Eurofins), FLT3. In kind it is biochemical. The note with it: 30 kinases. Here is the method:
as §1, §2

For another assay, the system named is K562 cells. The assay can be described thus: Resazurin-based viability assay, K562. In kind it is cell-based. The note with it: Homo sapiens, 72 h, at least duplicate experiments. The text has this:
(§4) In parallel to kinase assays, we measured the effect of compounds on the viability of cancer cell lines MV4-11 and K562 using a resazurin-based assay. MV4-11 is an AML cell line dependent on a constitutively activated FLT3-ITD kinase with high sensitivity to FLT3 inhibition, K562 cells (chronic myelogenous leukemia) are independent on FLT3.
(§5) Human cell lines were obtained from the European Collection of Authenticated Cell Cultures (K562) and Cell lines service (MV4-11) and were cultivated according to the provider’s instructions. Briefly, cells were maintained in RPMI-1640 (MV4-11) or DMEM (K562) supplemented with 10% fetal bovine serum, penicillin (100 U/mL), and streptomycin (0.1 mg/mL) at 37 °C in 5% CO2. For the viability assays, cells were treated in triplicate with six different doses of each compound for 72 h. After treatments, the resazurin (Sigma Aldrich, St. Louis, MO, USA) solution was added for 4 h, and the fluorescence of resorufin corresponding to live cells was measured at 544/590 nm (excitation/emission) using a Fluoroskan Ascent microplate reader (Labsystems). The GI50 value, the drug concentration lethal to 50% of the cells, was calculated from the dose-response curves that resulted from the assays.

The subject of another assay is MV4-11 cells. The assay can be described thus: Resazurin-based viability assay, MV4-11. It counts as cell-based, Human. The note with it: for GI50: Homo sapiens, MV4-11, 72 h, resazurin, at least duplicate experiments.
Excerpt: as §4, §5
A general note: Alamar Blue is a resazurin reagent that responds to reducing activity.

The test system of assay [1] is FLT3 signaling (FLT3 Y589/591, STAT5, ERK1/2) in MV4-11 cells. The assay can be described thus: Western blot of FLT3 and downstream signaling in MV4-11. In kind it is cell-based, Human. The note with it: MV4-11, 1 h treatment. Here is the method: Next, we investigated the compounds for their ability to inhibit FLT3 and its downstream signaling in the MV4-11 cell line.
Cell lysates were prepared, and then proteins were separated on SDS-polyacrylamide gels and electroblotted onto nitrocellulose membranes.
A general note: A western blot detects proteins with antibodies after separation by electrophoresis.

Where [2] appears, read: at least duplicate experiments, read-out: IC50 FLT3-ITD.
Where [3] appears, read: at least duplicate experiments, read-out: IC50 CDK4/D1.
Where [4] appears, read: at least duplicate experiments, read-out: IC50 CDK2/E.

Sequence of CDK4/D1 (P11802 whole entry): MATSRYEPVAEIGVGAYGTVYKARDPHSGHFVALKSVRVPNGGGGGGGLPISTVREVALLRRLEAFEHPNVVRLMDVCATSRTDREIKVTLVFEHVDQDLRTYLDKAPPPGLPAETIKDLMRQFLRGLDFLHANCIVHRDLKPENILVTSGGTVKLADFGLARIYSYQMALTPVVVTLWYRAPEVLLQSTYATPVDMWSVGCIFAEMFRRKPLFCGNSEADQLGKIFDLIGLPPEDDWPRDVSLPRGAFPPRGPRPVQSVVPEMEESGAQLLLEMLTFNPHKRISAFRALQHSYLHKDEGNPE
Sequence of CDK4/D1 (P24385 whole entry partner): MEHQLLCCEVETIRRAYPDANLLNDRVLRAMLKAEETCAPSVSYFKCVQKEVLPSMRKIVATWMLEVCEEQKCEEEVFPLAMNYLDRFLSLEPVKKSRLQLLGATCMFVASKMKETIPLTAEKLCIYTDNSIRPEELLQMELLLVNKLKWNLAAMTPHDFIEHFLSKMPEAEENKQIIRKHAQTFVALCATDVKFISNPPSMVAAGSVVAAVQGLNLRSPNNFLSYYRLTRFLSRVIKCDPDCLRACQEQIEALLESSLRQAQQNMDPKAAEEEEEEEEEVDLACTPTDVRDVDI
T1 sequence (P11802 whole entry): as the sequence (P11802 whole entry) above
T1 sequence (P30281 whole entry partner): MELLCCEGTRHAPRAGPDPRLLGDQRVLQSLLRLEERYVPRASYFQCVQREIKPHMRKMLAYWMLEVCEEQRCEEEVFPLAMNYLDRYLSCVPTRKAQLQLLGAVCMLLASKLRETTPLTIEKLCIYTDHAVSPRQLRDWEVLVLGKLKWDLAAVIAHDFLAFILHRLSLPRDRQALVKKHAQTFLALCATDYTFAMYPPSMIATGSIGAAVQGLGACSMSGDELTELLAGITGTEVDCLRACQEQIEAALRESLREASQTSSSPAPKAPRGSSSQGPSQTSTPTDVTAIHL
T3 sequence (P12931 whole entry): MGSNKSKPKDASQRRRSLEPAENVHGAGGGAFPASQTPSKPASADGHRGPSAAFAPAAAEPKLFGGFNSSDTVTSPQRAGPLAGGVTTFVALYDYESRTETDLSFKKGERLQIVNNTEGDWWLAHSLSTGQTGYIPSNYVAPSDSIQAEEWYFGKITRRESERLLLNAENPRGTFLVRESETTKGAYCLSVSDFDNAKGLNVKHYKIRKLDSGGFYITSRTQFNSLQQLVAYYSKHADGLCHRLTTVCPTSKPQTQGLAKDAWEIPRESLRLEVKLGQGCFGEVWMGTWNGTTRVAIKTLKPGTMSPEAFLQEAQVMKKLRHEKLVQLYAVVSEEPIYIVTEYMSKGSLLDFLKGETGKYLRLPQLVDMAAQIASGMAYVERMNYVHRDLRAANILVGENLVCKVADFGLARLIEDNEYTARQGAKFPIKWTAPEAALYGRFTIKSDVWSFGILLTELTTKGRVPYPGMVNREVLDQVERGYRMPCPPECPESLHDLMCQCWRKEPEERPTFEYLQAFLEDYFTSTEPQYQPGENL

Turning to `Cn1c(=O)n(C2CCCC2)c2nc(Nc3ccc(N4CCNCC4)cc3)ncc21` [14d], the “CDK4 inhibition in selectivity panel” value on CDK4 was “potent CDK4 and FLT3 inhibitors”. The IC50 was 0.083 µM on FLT3-ITD (setting [2]); 0.157 µM on CDK4/D1 (setting [3]); > 1 µM and 1.82 µM at CDK2/E (setting [4]). Besides, the remaining activity at 1 µM at Src was at most 10%. The “FLT3 inhibition in selectivity panel” value at FLT3 is “potent CDK4 and FLT3 inhibitors”. The 50% growth inhibitory concentration (GI50) worked out at 0.96 µM with K562 cells and 0.12 µM in the assay with MV4-11 cells.
As to `CC(C)n1c(=O)n(C2CCCC2)c2nc(Nc3ccc(N4CCNCC4)cc3)ncc21` [15a, 9-cyclopentyl-7-isopropyl-2-((4-(piperazin-1-yl)phenyl)amino)-7,9-dihydro-8H-purin-8-one], the remaining activity at 1 µM is 90% at CDK4 (read-out: residual enzyme activity CDK4) and at most 10% on Src. Also, the IC50 on FLT3-ITD (setting [2]) came to 0.037 µM; at CDK4/D1 (setting [3]), 1.9 µM; on CDK2/E (setting [4]), 5.06 µM. The “concentration at which dephosphorylation of FLT3 was observed” value in assay [1] is listed as 8 nM. Moreover, the “concentration giving nearly complete suppression of ERK1/2” value in assay [1] is 40 nM. In addition, on FLT3, the “FLT3 inhibition in selectivity panel” value came out at 1st rank. For the same compound, the results for the GI50 in the assay on K562 cells and in the assay with MV4-11 cells were 0.58 µM and 0.05 µM, respectively.
For `Cn1c(=O)n(C2CCCCC2)c2nc(Nc3ccc(N4CCNCC4)cc3)ncc21` [14e], on CDK4, the “CDK4 inhibition in selectivity panel” value is “potent CDK4 and FLT3 inhibitors”. Besides, the IC50 on FLT3-ITD (setting [2]) is 0.068 µM; on FLT3-ITD (read-out: IC50 FLT3), at most 0.3 µM; at CDK4/D1 (setting [3]), 0.02 µM; at CDK4/D1 (read-out: IC50 CDK4), at most 0.3 µM; on CDK2/E (setting [4]) it was 0.3 µM; on CDK2/E (read-out: IC50 CDK2), at most 0.3 µM. Besides, in assay [1], the “autophosphorylation of FLT3 kinase at Y589/591” value was “inhibits autophosphorylation of FLT3 kinase at Y589/591”. In addition, the “phosphorylation of downstream proteins STAT5 and ERK1/2” value in [1] is given as “diminishes the phosphorylation”. Also, at Src, the remaining activity at 1 µM is at most 10%. Moreover, the “FLT3 inhibition in selectivity panel” value at FLT3 is “potent CDK4 and FLT3 inhibitors”. Further, the GI50 turned out to be 4.53 µM in the assay on K562 cells and 0.2 µM with MV4-11 cells. In the assay with MV4-11 cells (K562 / MV4-11), the “selectivity index (ratio for GI50's of K562 and MV4-11 cells)” value is given as over 20.

A word on the GI50: it is the concentration giving 50% growth inhibition. A higher GI50 goes with less potent growth inhibition.
